In patent publication US20050014845A1, “Ambroxol for the treatment of epilepsy” (Boehringer Ingelheim International GmbH, priority 2003, published 2005):

How the values were obtained:
human GluR1/2 receptors = target: T1, human GluR1/2 receptors (Homo sapiens, UniProt P42261+P42262); assay: Patch-Clamp of glutamate-induced membrane currents in HEK 293 cells expressing GluR1/2; format: cell-based; conditions: 1 mM glutamate for 1 s, holding potential −80 mV
T1 construct: expressed in transfected cells; host or cells: HEK 293
Protocol: HEK 293 cells which expressed functionally recombinant human GluR1/2 receptors were electrophysiologically investigated by the Patch-Clamp method ([…]). The administration of 1 mM glutamate (for 1 s at a holding potential of −80 mV) induced membrane currents which were inhibited by the joint administration of ambroxol.

[1] = system: centrally expressed neuronal sodium channels; conditions: neuronal sodium channel subtypes, read-out: half-maximal inhibition of centrally expressed channels; cited from earlier work

T1 sequence (P42261 19-906): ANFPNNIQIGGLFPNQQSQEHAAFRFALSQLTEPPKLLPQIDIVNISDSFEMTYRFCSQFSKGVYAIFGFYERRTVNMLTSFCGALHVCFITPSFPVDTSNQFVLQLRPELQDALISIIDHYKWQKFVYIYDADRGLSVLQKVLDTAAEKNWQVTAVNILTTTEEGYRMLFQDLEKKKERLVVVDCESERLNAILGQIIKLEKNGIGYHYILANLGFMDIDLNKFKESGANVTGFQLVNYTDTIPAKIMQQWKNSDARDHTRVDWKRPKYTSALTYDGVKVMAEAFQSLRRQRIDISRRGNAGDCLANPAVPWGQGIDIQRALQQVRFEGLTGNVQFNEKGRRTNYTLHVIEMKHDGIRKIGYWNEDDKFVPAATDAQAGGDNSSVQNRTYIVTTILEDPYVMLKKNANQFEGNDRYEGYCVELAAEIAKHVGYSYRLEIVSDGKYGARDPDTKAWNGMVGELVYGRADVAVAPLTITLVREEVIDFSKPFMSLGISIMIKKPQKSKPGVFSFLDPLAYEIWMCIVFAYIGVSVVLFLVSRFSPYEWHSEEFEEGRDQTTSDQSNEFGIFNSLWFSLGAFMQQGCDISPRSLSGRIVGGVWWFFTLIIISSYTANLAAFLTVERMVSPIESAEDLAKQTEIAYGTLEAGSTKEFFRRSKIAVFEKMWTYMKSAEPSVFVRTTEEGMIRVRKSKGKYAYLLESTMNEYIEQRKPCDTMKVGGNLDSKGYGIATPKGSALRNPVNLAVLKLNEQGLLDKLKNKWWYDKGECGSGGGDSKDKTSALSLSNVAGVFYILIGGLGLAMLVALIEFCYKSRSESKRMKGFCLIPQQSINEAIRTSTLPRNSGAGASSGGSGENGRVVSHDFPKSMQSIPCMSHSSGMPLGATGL
T1 sequence (P42262 22-883 limits assumed): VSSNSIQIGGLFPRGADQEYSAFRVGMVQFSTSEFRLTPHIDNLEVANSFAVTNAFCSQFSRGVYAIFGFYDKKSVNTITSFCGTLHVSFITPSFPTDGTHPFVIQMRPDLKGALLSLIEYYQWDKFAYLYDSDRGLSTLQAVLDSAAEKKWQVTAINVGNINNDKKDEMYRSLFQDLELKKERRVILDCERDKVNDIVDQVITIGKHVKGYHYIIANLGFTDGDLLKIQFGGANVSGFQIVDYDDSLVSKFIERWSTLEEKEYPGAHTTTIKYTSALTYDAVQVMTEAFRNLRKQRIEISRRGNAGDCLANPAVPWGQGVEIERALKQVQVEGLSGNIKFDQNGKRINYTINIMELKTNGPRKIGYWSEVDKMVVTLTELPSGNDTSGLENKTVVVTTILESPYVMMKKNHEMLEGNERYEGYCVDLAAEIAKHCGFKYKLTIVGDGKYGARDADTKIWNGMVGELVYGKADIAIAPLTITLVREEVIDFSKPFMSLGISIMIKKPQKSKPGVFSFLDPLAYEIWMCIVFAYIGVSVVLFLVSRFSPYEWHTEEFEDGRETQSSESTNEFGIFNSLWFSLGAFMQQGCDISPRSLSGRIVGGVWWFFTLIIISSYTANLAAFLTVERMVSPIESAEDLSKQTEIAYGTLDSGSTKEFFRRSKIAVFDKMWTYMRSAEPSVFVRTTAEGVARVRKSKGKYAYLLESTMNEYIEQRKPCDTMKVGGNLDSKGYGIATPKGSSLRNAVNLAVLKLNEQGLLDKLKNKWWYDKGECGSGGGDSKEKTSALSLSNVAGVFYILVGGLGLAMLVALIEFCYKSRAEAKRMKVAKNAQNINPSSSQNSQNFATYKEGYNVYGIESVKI

For `Nc1c(Br)cc(Br)cc1CN[C@H]1CC[C@H](O)CC1` [ambroxol, trans-4-(2-amino-3,5-dibromobenzylamino)cyclohexanol], the “concentrations inhibiting glutamate-induced membrane currents” value (human GluR1/2 receptors) is listed as 30 to 1000 µM and the IC50 [1] is listed as 111 µM.
